Source: ChEMBL document CHEMBL1139171, “Synthesis and antifungal activity of 6-arylamino-phthalazine-5,8-diones and 6,7-bis(arylthio)-phthalazine-5,8-diones” (2007)
≈ marks a conversion by molar mass, not a printed value.

Experiments:
Type in all cases: functional
[1] = system: Candida tropicalis; assay: Antifungal activity against Candida tropicalis Berkout KCCM 50662 after 1 day by broth dilution method
[2] = system: Candida albicans; assay: Antifungal activity against Candida albicans Berkout KCCM 50235 after 1 day by broth dilution method; conditions: KCCM 50235, 24 h
[3] = system: Pichia kudriavzevii; assay: Antifungal activity against Candida krusei Berkout KCCM 11655 after 1 day by broth dilution method; conditions: KCCM 11655, 24 h
[4] = system: Aspergillus flavus; assay: Antifungal activity against Aspergillus flavus KCCM 11899 after 2 days by broth dilution method
[5] = system: Cryptococcus neoformans; assay: Antifungal activity against Cryptococcus neoformans KCCM 50564 after 1 day by broth dilution method; conditions: KCCM 50564, 24 h
[6] = system: Aspergillus niger; assay: Antifungal activity against Aspergillus niger KCTC 1231 after 2 days by broth dilution method
[7] = Candida tropicalis, KCCM 50662, 24 h, read-out: MIC
[8] = Aspergillus flavus, KCCM 11899, 48 h, read-out: MIC
[9] = Aspergillus niger, KCTC 1231, 48 h, read-out: MIC

SMILES	MIC [1, 7] [mg/L]	MIC [2] [mg/L]	MIC [3] [mg/L]	MIC [4, 8] [mg/L]	MIC [5] [mg/L]	MIC [6, 9] [mg/L]	MIC [1] [mg/L]	MIC [4] [mg/L]	MIC [6] [mg/L]
COc1ccc(SC2=C(Sc3ccc(OC)cc3)C(=O)c3cnncc3C2=O)cc1	100 (≈ 229 µM)	25 (≈ 57.3 µM)	100 (≈ 229 µM)	> 100	> 100	12.5 (≈ 28.6 µM)	–	–	–
O=C1C(Cl)=C(Nc2ccc(Br)cc2)C(=O)c2cnncc21	12.5 (≈ 34.3 µM)	25 (≈ 68.6 µM)	25 (≈ 68.6 µM)	25 (≈ 68.6 µM)	3.2 (≈ 8.78 µM)	25 (≈ 68.6 µM)	–	–	–
Nc1cccc2cnncc12	> 100	> 100	100 (≈ 689 µM)	100 (≈ 689 µM)	25 (≈ 172 µM)	> 100	–	–	–
O=C1C(Sc2ccc(F)cc2)=C(Sc2ccc(F)cc2)C(=O)c2cnncc21	6.3 (≈ 15.3 µM)	6.3 (≈ 15.3 µM)	100 (≈ 242 µM)	> 100	> 100	12.5 (≈ 30.3 µM)	–	–	–
O=C1C(Sc2ccccc2)=C(Sc2ccccc2)C(=O)c2cnncc21	100 (≈ 266 µM)	–	–	> 100	–	6.3 (≈ 16.7 µM)	>100	100 (≈ 266 µM)	6.3 (≈ 16.7 µM)
O=C1C=C(Nc2ccc(Br)cc2)C(=O)c2cnncc21	3.2 (≈ 9.69 µM)	12.5 (≈ 37.9 µM)	12.5 (≈ 37.9 µM)	50 (≈ 151 µM)	12.5 (≈ 37.9 µM)	50 (≈ 151 µM)	–	–	–
O=C1C(Cl)=C(Nc2ccc(I)cc2)C(=O)c2cnncc21	12.5 (≈ 30.4 µM)	12.5 (≈ 30.4 µM)	12.5 (≈ 30.4 µM)	50 (≈ 121 µM)	100 (≈ 243 µM)	> 100	–	–	–
O=C1C(Sc2ccc(F)c(F)c2)=C(Sc2ccc(F)c(F)c2)C(=O)c2cnncc21	12.5 (≈ 27.9 µM)	3.2 (≈ 7.14 µM)	> 100	25 (≈ 55.8 µM)	100 (≈ 223 µM)	3.2 (≈ 7.14 µM)	–	–	–
Cc1ccc(NC2=CC(=O)c3cnncc3C2=O)cc1C	100 (≈ 358 µM)	3.2 (≈ 11.5 µM)	50 (≈ 179 µM)	> 100	25 (≈ 89.5 µM)	> 100	–	–	–
O=C1C=C(Nc2ccc(F)cc2)C(=O)c2cnncc21	25 (≈ 92.9 µM)	50 (≈ 186 µM)	25 (≈ 92.9 µM)	100 (≈ 371 µM)	6.3 (≈ 23.4 µM)	> 100	–	–	–
O=C1C(Cl)=C(Nc2ccc(F)c(F)c2)C(=O)c2cnncc21	3.2 (≈ 9.95 µM)	25 (≈ 77.7 µM)	> 100	100 (≈ 311 µM)	50 (≈ 155 µM)	100 (≈ 311 µM)	–	–	–
O=C1C(Cl)=C(Nc2cccc(Cl)c2)C(=O)c2cnncc21	25 (≈ 78.1 µM)	25 (≈ 78.1 µM)	25 (≈ 78.1 µM)	25 (≈ 78.1 µM)	3.2 (≈ 10 µM)	12.5 (≈ 39 µM)	–	–	–
O=C1C(Sc2ccc(O)cc2)=C(Sc2ccc(O)cc2)C(=O)c2cnncc21	> 100	100 (≈ 245 µM)	> 100	> 100	> 100	> 100	–	–	–
Cc1ccc(NC2=CC(=O)c3cnncc3C2=O)cc1	12.5 (≈ 47.1 µM)	6.3 (≈ 23.7 µM)	12.5 (≈ 47.1 µM)	25 (≈ 94.2 µM)	6.3 (≈ 23.7 µM)	50 (≈ 188 µM)	–	–	–
O=C1C(Sc2ccc(Br)cc2)=C(Sc2ccc(Br)cc2)C(=O)c2cnncc21	50 (≈ 93.6 µM)	50 (≈ 93.6 µM)	> 100	50 (≈ 93.6 µM)	> 100	> 100	–	–	–
Nc1nc(=O)[nH]cc1F [FLUCYTOSINE]	12.5 (≈ 96.8 µM)	25 (≈ 194 µM)	50 (≈ 387 µM)	100 (≈ 775 µM)	12.5 (≈ 96.8 µM)	25 (≈ 194 µM)	–	–	–
COc1ccc(NC2=CC(=O)c3cnncc3C2=O)cc1	6.3 (≈ 22.4 µM)	12.5 (≈ 44.4 µM)	12.5 (≈ 44.4 µM)	25 (≈ 88.9 µM)	6.3 (≈ 22.4 µM)	25 (≈ 88.9 µM)	–	–	–
Nc1ccc(N)c2cnncc12	> 100	> 100	100 (≈ 624 µM)	100 (≈ 624 µM)	6.3 (≈ 39.3 µM)	> 100	–	–	–
O=C1C(Cl)=C(Nc2ccc(Cl)cc2)C(=O)c2cnncc21	12.5 (≈ 39 µM)	12.5 (≈ 39 µM)	6.3 (≈ 19.7 µM)	> 100	100 (≈ 312 µM)	> 100	–	–	–
O=C1C(Sc2cccc(Cl)c2)=C(Sc2cccc(Cl)c2)C(=O)c2cnncc21	100 (≈ 225 µM)	12.5 (≈ 28.1 µM)	> 100	> 100	> 100	6.3 (≈ 14.1 µM)	–	–	–
O=C1C(Cl)=C(Nc2ccc(F)cc2)C(=O)c2cnncc21	50 (≈ 165 µM)	50 (≈ 165 µM)	50 (≈ 165 µM)	> 100	6.3 (≈ 20.7 µM)	> 100	–	–	–
O=C1C(Cl)=C(Nc2ccccc2)C(=O)c2cnncc21	25 (≈ 87.5 µM)	50 (≈ 175 µM)	25 (≈ 87.5 µM)	25 (≈ 87.5 µM)	3.2 (≈ 11.2 µM)	100 (≈ 350 µM)	–	–	–
Cc1cccc(SC2=C(Sc3cccc(C)c3)C(=O)c3cnncc3C2=O)c1	50 (≈ 124 µM)	12.5 (≈ 30.9 µM)	> 100	100 (≈ 247 µM)	> 100	6.3 (≈ 15.6 µM)	–	–	–
O=C1C(Cl)=C(Nc2cccc(C(F)(F)F)c2)C(=O)c2cnncc21	12.5 (≈ 35.3 µM)	25 (≈ 70.7 µM)	100 (≈ 283 µM)	50 (≈ 141 µM)	50 (≈ 141 µM)	50 (≈ 141 µM)	–	–	–
